Measured values as given in ChEMBL document CHEMBL4715874, “In Vivo Screening of Xanthones from Garcinia oligantha Identified Oliganthin H as a Novel Natural Inhibitor of Convulsions” (J Nat Prod, 2020).
Calls of active or inactive are those of the source. No cut-off for these calls is given here.

Experiments:
Danio rerio [1] = species: Danio rerio; test: Anticonvulsant activity in AB zebra fish larvae assessed as PTZ-induced seizure activity at 6.2 uM pretreated for 6 hrs followed by PTZ-stimulation and measured every 5 mins for 30 mins (reference value: 14.13 +/- 0.004 mm); format: functional; conditions: time 6.5 hrs
Danio rerio [2] = species: Danio rerio; test: Anticonvulsant activity in AB zebra fish larvae assessed as PTZ-induced seizure duration time at 12.5 uM pretreated for 6 hrs followed by PTZ-stimulation and measured every 5 mins for 30 mins (reference value: 0.32 +/- 0.31 s); format: functional; conditions: time 6.5 hrs
Danio rerio [3] = species: Danio rerio; test: Anticonvulsant activity in AB zebra fish larvae assessed as PTZ-induced velocity at 12.5 uM pretreated for 6 hrs followed by PTZ-stimulation and measured every 5 mins for 30 mins (reference value: 0.63 +/- 0.23 mm/s); format: functional; conditions: time 6.5 hrs
[4] = Effect of npas4a mRNA expression in AB zebra fish larvae at 25 uM after 6 hrs by qRT-PCR analysis (reference value: 1.04 +/- 0.41%); format: ADME, Danio rerio; conditions: zebrafish
[5] = Neurotoxicity in AB zebra fish larvae at 100 uM after 6 hrs; format: toxicity, Danio rerio; conditions: zebrafish
Danio rerio [6] = species: Danio rerio; test: Anticonvulsant activity in AB zebra fish larvae assessed as PTZ-induced seizure activity at 25 uM pretreated for 6 hrs followed by PTZ-stimulation and measured every 5 mins for 30 mins (reference value: 14.13 +/- 0.004 mm); format: functional; conditions: time 6.5 hrs
Danio rerio [7] = species: Danio rerio; test: Anticonvulsant activity in AB zebra fish larvae assessed as PTZ-induced PYYA mRNA expression at 25 uM pretreated for 6 hrs followed by PTZ-stimulation and measured after 30 mins by qRT-PCR analysis (reference value: 18.53 +/- 4.32%); format: functional; conditions: time 6.5 hrs
Danio rerio [8] = species: Danio rerio; test: Anticonvulsant activity in AB zebra fish larvae assessed as PTZ-induced glud1a mRNA expression at 25 uM pretreated for 6 hrs followed by PTZ-stimulation and measured after 30 mins by qRT-PCR analysis (reference value: 1.67 +/- 0.4%); format: functional; conditions: time 6.5 hrs
Danio rerio [9] = species: Danio rerio; test: Anticonvulsant activity in AB zebra fish larvae assessed as PTZ-induced seizure activity at 12.5 uM pretreated for 6 hrs followed by PTZ-stimulation and measured every 5 mins for 30 mins (reference value: 14.13 +/- 0.004 mm); format: functional; conditions: time 6.5 hrs
[10] = Effect of gabra1 mRNA expression in AB zebra fish larvae at 25 uM after 6 hrs by qRT-PCR analysis (reference value: 1 +/- 0.11%); format: ADME, Danio rerio; conditions: zebrafish
Danio rerio [11] = species: Danio rerio; test: Anticonvulsant activity in AB zebra fish larvae assessed as PTZ-induced velocity at 25 uM pretreated for 6 hrs followed by PTZ-stimulation and measured every 5 mins for 30 mins (reference value: 0.63 +/- 0.23 mm/s); format: functional; conditions: time 6.5 hrs
Danio rerio [12] = species: Danio rerio; test: Anticonvulsant activity in AB zebra fish larvae assessed as PTZ-induced gat1 mRNA expression at 25 uM pretreated for 6 hrs followed by PTZ-stimulation and measured after 30 mins by qRT-PCR analysis (reference value: 1.63 +/- 0.28%); format: functional; conditions: time 6.5 hrs
Danio rerio [13] = species: Danio rerio; test: Anticonvulsant activity in AB zebra fish larvae assessed as reduction in PTZ-induced convulsant behavior by measuring swimming distance at 25 uM pretreated for 6 hrs followed by PTZ-stimulation and measured every 5 mins for 1 hr relative to control; format: functional; set-up: scale not given: the % may be the effect or the level left; conditions: time 7 hrs
[14] = Toxicity in AB zebra fish larvae assessed as maximum tolerated concentration after 6 hrs; set-up: species or system Danio rerio; conditions: zebrafish, read-out: MTC
Danio rerio [15] = species: Danio rerio; test: Anticonvulsant activity in AB zebra fish larvae assessed as PTZ-induced BDNF mRNA expression at 25 uM pretreated for 6 hrs followed by PTZ-stimulation and measured after 30 mins by qRT-PCR analysis (reference value: 11.41 +/- 1.09%); format: functional; conditions: time 6.5 hrs
[16] = Effect of glud1a mRNA expression in AB zebra fish larvae at 25 uM after 6 hrs by qRT-PCR analysis (reference value: 1 +/- 0.16%); format: ADME, Danio rerio; conditions: zebrafish
Danio rerio [17] = species: Danio rerio; test: Anticonvulsant activity in AB zebra fish larvae assessed as PTZ-induced calb2 mRNA expression at 25 uM pretreated for 6 hrs followed by PTZ-stimulation and measured after 30 mins by qRT-PCR analysis (reference value: 0.88 +/- 0.39%); format: functional; conditions: time 6.5 hrs
Danio rerio [18] = species: Danio rerio; test: Anticonvulsant activity in AB zebra fish larvae assessed as reduction in PTZ-induced convulsant behavior by measuring swimming distance at 6.2 uM pretreated for 6 hrs followed by PTZ-stimulation and measured every 5 mins for 1 hr; format: functional, organism-based; conditions: time 7.0 hrs
Danio rerio [19] = species: Danio rerio; test: Anticonvulsant activity in AB zebra fish larvae assessed as PTZ-induced GLSA mRNA expression at 25 uM pretreated for 6 hrs followed by PTZ-stimulation and measured after 30 mins by qRT-PCR analysis (reference value: 3.4 +/- 0.5%); format: functional; conditions: time 6.5 hrs
Danio rerio [20] = species: Danio rerio; test: Anticonvulsant activity in AB zebra fish larvae assessed as PTZ-induced GLULA mRNA expression at 25 uM pretreated for 6 hrs followed by PTZ-stimulation and measured after 30 mins by qRT-PCR analysis (reference value: 5.44 +/- 0.55%); format: functional; conditions: time 6.5 hrs
[21] = Effect of gat1 mRNA expression in AB zebra fish larvae at 25 uM after 6 hrs by qRT-PCR analysis (reference value: 1.03 +/- 0.38%); format: ADME, Danio rerio; conditions: zebrafish
[22] = Effect of pvalb5 mRNA expression in AB zebra fish larvae at 25 uM after 6 hrs by qRT-PCR analysis (reference value: 1 +/- 0.07%); format: ADME, Danio rerio; conditions: zebrafish
Danio rerio [23] = species: Danio rerio; test: Anticonvulsant activity in AB zebra fish larvae assessed as PTZ-induced PRKACB mRNA expression at 25 uM pretreated for 6 hrs followed by PTZ-stimulation and measured after 30 mins by qRT-PCR analysis (reference value: 1.49 +/- 0.69%); format: functional; conditions: time 6.5 hrs
Danio rerio [24] = species: Danio rerio; test: Anticonvulsant activity in AB zebra fish larvae assessed as PTZ-induced seizure duration time at 25 uM pretreated for 6 hrs followed by PTZ-stimulation and measured every 5 mins for 30 mins (reference value: 0.32 +/- 0.31 s); format: functional; conditions: time 6.5 hrs
[25] = Effect of PYYA mRNA expression in AB zebra fish larvae at 25 uM after 6 hrs by qRT-PCR analysis (reference value: 1 +/- 0.13%); format: ADME, Danio rerio; conditions: zebrafish

SMILES: CC(C)=CCC/C(C)=C/C[C@@]1(CC=C(C)C)C(=O)C(O)=C(O)c2oc3c4c(cc(O)c3c(=O)c21)OC(C)(C)C=C4
- Activity (Danio rerio [1]): 1210 mm
- Time (Danio rerio [2]): 8.18 s
- Activity (Danio rerio [3]): 0.86 millimeter/sec
- Activity [4]: 1.95%
- Activity [5]: Toxic
- Activity (Danio rerio [6]): 557.9 mm
- Activity (Danio rerio [7]): 1.09%
- Activity (Danio rerio [8]): 1.24%
- Activity (Danio rerio [9]): 600.8 mm
- Activity [10]: 1.77%
- Activity (Danio rerio [11]): 0.8 millimeter/sec
- Activity (Danio rerio [12]): 1.13%
- Activity (Danio rerio [13]): 50%
- MNTC at 6 h [14]: 50 µM
- Activity (Danio rerio [15]): 1.32%
- Activity [16]: 1%
- Activity (Danio rerio [17]): 0.97%
- Activity (Danio rerio [18]): inactive
- Activity (Danio rerio [19]): 0.92%
- Activity (Danio rerio [20]): 1.61%
- Activity [21]: 0.87%
- Activity [22]: 0.86%
- Activity (Danio rerio [23]): 1.21%
- Time (Danio rerio [24]): 7.32 s
- Activity [25]: 2.27%
